Test results published in patent publication US11352362B2, “Polymorph of rucaparib camsylate” (SHANGHAI BEGREAT PHARMATECH, priority 2018, dated 2022).
Where a name gives a salt, the structure may show the parent alone.

Tests used:
[1] = Solubility of rucaparib camsylate crystal forms in simulated gastric juice; type: physicochemical; details: for Solubility under low pH conditions: such as pH 1.2; for Solubility in SGF: about 1 mg in 1 mL, shaking 20 min, filtered, HPLC
Experimental: Determination of the solubility of rucaparib camsylate in simulated gastric juice. Weigh about 1 mg of the powder of Form A, Form B, Form C and Form D of rucaparib camsylate in a 2-mL tube, then add 1 mL of simulated gastric juice (Prepared by adding diluted hydrochloric acid 16.4 ml, 800 ml of water and 10 g of pepsin. After shaking, add water to volume of 1000 ml). After shaking the suspension for 20 min, it was filtered through a needle filter to obtain a clear solution. The rucaparib camsylate content in the solution was analyzed by HPLC method.

[2] = Stress stability of crystal form D (XRPD evaluation); type: physicochemical
Experimental: In order to evaluate the physical stability of the crystal form D, experiments on the stress stability for the crystal form D were performed. The physical stability of the crystal form D under high temperature, high humidity and light stress conditions was investigated. The experimental conditions of the stress stability are as follows: [table] The crystal form D was placed in the above stress conditions. After sampling at the time point, the stability sample was evaluated by XRPD.

SMILES | Solubility under low pH conditions [1] | Solubility in SGF ([1]; simulated gastric juice) | Solubility at 20 minutes compared with existing crystalline forms A, B and C ([1]; simulated gastric juice, low pH, 20 minutes) | Crystal form by XRPD after stress ([2]; Elevate temperature 60° C., 5 day) | Crystal form by XRPD after stress ([2]; Elevate temperature 60° C., 10 day) | Crystal form by XRPD after stress ([2]; High humidity 92.5% RH, 5 day) | Crystal form by XRPD after stress ([2]; High humidity 92.5% RH, 10 day) | Crystal form by XRPD after stress ([2]; Light stress 4500 lux, 5 day) | Crystal form by XRPD after stress ([2]; Light stress 4500 lux, 10 day) | Physical stability under stress conditions ([2]; high temperature, high humidity and light stress conditions)
CNCc1ccc(-c2[nH]c3cc(F)cc4c3c2CCNC4=O)cc1 [Form A, 8-fluoro-2-{4-[(methylamino)methyl]phenyl}-1,3,4,5-tetrahydro-6H-azepino[5,4,3-cd]indol-6-one ((1S,4R)-7,7-dimethyl-2-oxobicyclo[2.2.1]hept-1-yl) methanesulfonic acid salt] | low solubility | 100 µg/mL |  |  |  |  |  |  |  | 
CNCc1ccc(-c2[nH]c3cc(F)cc4c3c2CCNC4=O)cc1 [Form B, 8-fluoro-2-{4-[(methylamino)methyl]phenyl}-1,3,4,5-tetrahydro-6H-azepino[5,4,3-cd]indol-6-one ((1S,4R)-7,7-dimethyl-2-oxobicyclo[2.2.1]hept-1-yl) methanesulfonic acid salt] | low solubility | 130 µg/mL |  |  |  |  |  |  |  | 
CNCc1ccc(-c2[nH]c3cc(F)cc4c3c2CCNC4=O)cc1 [Form C, 8-fluoro-2-{4-[(methylamino)methyl]phenyl}-1,3,4,5-tetrahydro-6H-azepino[5,4,3-cd]indol-6-one ((1S,4R)-7,7-dimethyl-2-oxobicyclo[2.2.1]hept-1-yl) methanesulfonic acid salt] | low solubility | 110 µg/mL |  |  |  |  |  |  |  | 
CNCc1ccc(-c2[nH]c3cc(F)cc4c3c2CCNC4=O)cc1 [Form D, 8-fluoro-2-{4-[(methylamino)methyl]phenyl}-1,3,4,5-tetrahydro-6H-azepino[5,4,3-cd]indol-6-one ((1S,4R)-7,7-dimethyl-2-oxobicyclo[2.2.1]hept-1-yl) methanesulfonic acid salt] |  | 310 µg/mL | significantly higher | Form D | Form D | Form D | Form D | Form D | Form D | stable
